Test results taken from PMC12247020, “A Cyclized Helix‐Loop‐Helix Peptide as a Molecular Scaffold for Cell‐Membrane Permeable Inhibitors for the Interaction Between Estrogen Receptor α and Coactivator SRC1” (Chembiochem, 2025).
Like-named read-outs stand apart in the source and are kept apart here. Bridge positions count the residues as written; N and C are the ends. Peptide text beside a SMILES is read from it. * marks the point of attachment. X1 = CN(C)c1ccc2c(c1)Oc1cc(N(C)C)ccc1C21OC(=O)c2cc(NC(=O)C*)ccc21

Legend:
[1] = test system: MCF‐7 breast cancer cells; assay: Live cell confocal laser microscopy of TMR‐labeled peptides (cell membrane permeability); conditions: MCF‐7 cells, 3 μM TMR‐labeled peptide
ERα/LBD (ERα302–552) = target: T1, ERα/LBD (ERα302–552) (Homo sapiens, UniProt P03372); assay: Fluorescence polarization (FP) direct binding of fluorescently labeled peptides to ERα/LBD
T1 construct: Recombinant ERα/LBD (ERα^302–552) was prepared as previously reported; made in house; host or cells: Escherichia coli BL21-CodonPlus-RP
T1 sequence (P03372 302-552): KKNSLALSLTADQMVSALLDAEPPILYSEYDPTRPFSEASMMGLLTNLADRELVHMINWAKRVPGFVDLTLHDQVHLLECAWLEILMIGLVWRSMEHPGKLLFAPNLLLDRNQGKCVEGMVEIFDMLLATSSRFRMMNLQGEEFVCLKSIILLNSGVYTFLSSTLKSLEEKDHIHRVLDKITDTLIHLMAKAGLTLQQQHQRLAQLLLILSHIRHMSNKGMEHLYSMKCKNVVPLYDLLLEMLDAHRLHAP
Procedure: The binding activity of cHLH‐ERα was examined by fluorescence polarization (FP) analysis.^[ [26], [29] ^] The cHLH peptides were labeled with tetramethylrhodamine (TMR) to provide the fluorescent cHLH peptide TMR‐cHLH‐ERα, and fluorescent TMR‐YT1‐RS as a negative control (Figure 1, Figure S2, Supporting Information).
1. Protein Expression and Purification
The plasmid encoding the LBD domain of ERα (ERα302-552), was prepared from the plasmid pF1KB7810 (Kazusa DNA Res. Inst. ) encoding the full length of Estrogen Receptor α as described by using pET -28a(+)vector [1]. […]
4. Fluorescence Polarization […]
Tris-HCl (pH 8.0), 25 mM NaCl, 10%(v/v) Glycerol, 1 mM TCEP as described. The concentration of FL-SRC1Box2 labeled with Fluorescein and TMR-cHLH-ERα and YT1-RS were determined from the absorption of Fluorescein or Tetramethylrhodamine. The respective peptide was incubated with ERα-LBD for 30 min in 20 mM Tris-HCl (pH 8.0), 25 mM NaCl with 1 mM 17β-estradiol, and the mixture was transferred into a 384-well microtiter well (Non-binding, Black, greiner bio -one) and the fluorescence polarization was measured on a spectrofluorometer (SpectraMax iD5, Molecular Devices) at 20 °C. The KD values were analyzed via a quadratic binding equation (Fig S5A, S5B) with the data fit to calculate by using KaleidaGraph 4.0 as described elsewhere. […]

CC(C)C[C@@H]1NC(=O)[C@H](C)NC(=O)[C@H](C)NC(=O)[C@H](CC(C)C)NC(=O)[C@H](CCCCN)NC(=O)[C@H](C)NC(=O)[C@H](CCCCN)NC(=O)[C@H](CC(C)C)NC(=O)[C@H](C)NC(=O)[C@H](C)NC(=O)[C@H](CC(C)C)NC(=O)[C@H](CCCCN)NC(=O)CNC(=O)CNC(=O)CNC(=O)CNC(=O)CNC(=O)CNC(=O)CNC(=O)[C@H](CCC(=O)O)NC(=O)[C@H](CC(C)C)NC(=O)[C@H](CCCNC(=N)N)NC(=O)[C@H](CCCNC(=N)N)NC(=O)[C@H](CC(C)C)NC(=O)[C@H](CCC(=O)O)NC(=O)[C@H](CCCNC(=N)N)NC(=O)[C@H](CCC(=O)O)NC(=O)[C@H](CC(C)C)NC(=O)[C@H](CCCNC(=N)N)NC(=O)[C@H](CCCNC(=N)N)NC(=O)[C@H](CC(C)C)NC(=O)[C@H](CCC(=O)O)NC(=O)[C@H](CCCNC(=N)N)NC(=O)[C@H](CSCC(=O)Nc2ccc3c(c2)C(=O)OC32c3ccc(N(C)C)cc3Oc3cc(N(C)C)ccc32)NC(=O)CNC(=O)CSC[C@@H](C(N)=O)NC(=O)[C@H](Cc2ccc(O)cc2)NC(=O)[C@H](C)NC(=O)[C@H](CCCCN)NC1=O [TMR‐YT1‐RS] ({CH2CO}-GC(X1)RELRRLERELRRLEGGGGGGGKLAALKAKLAALKAYC-NH2; thioether N-39)
cell membrane permeability, confocal laser microscopy, 4 °C ([1]; 4 °C (pre‐chilled medium), fluorescence imaging): showed cell membrane permeability
cell membrane permeability, confocal laser microscopy, 37 °C ([1]; 5‐min incubation, 37 °C, 5% CO2, nuclei stained with Hoechst 33 342, fluorescence imaging): showed cell membrane permeability

CC(C)C[C@@H]1NC(=O)[C@H](C)NC(=O)[C@H](C)NC(=O)[C@H](CC(C)C)NC(=O)[C@H](CCCCN)NC(=O)CNC(=O)CNC(=O)CNC(=O)CNC(=O)CNC(=O)CNC(=O)CNC(=O)[C@H](CCC(=O)O)NC(=O)[C@H](CC(C)C)NC(=O)[C@H](CCCNC(=N)N)NC(=O)[C@H](CCCNC(=N)N)NC(=O)[C@H](CC(C)C)NC(=O)[C@H](CCC(=O)O)NC(=O)[C@H](CCCNC(=N)N)NC(=O)[C@H](CCC(=O)O)NC(=O)[C@H](CC(C)C)NC(=O)[C@H](CCCNC(=N)N)NC(=O)[C@H](CCCNC(=N)N)NC(=O)[C@H](CC(C)C)NC(=O)[C@H](CCC(=O)O)NC(=O)[C@H](CCCNC(=N)N)NC(=O)[C@H](CSCC(=O)Nc2ccc3c(c2)C(=O)OC32c3ccc(N(C)C)cc3Oc3cc(N(C)C)ccc32)NC(=O)CNC(=O)CSC[C@@H](C(N)=O)NC(=O)[C@H](Cc2ccc(O)cc2)NC(=O)[C@H](C)NC(=O)[C@H](CCCCN)NC(=O)[C@H](CC(C)C)NC(=O)[C@H](CC(C)C)NC(=O)[C@H](CC(C)C)NC(=O)[C@H](CC(C)C)NC(=O)[C@H](CCCCN)NC(=O)[C@H](CC(C)C)NC(=O)[C@H](CCCCN)NC1=O [TMR‐cHLH‐ERα] ({CH2CO}-GC(X1)RELRRLERELRRLEGGGGGGGKLAALKLKLLLLKAYC-NH2; thioether N-39)
Kd (ERα/LBD (ERα302–552)): 0.285 µM

CH3CO-C(FL)QLLTERHKILHRLLQEGSPSD-NH2 (Ac-C(fluorescein)QLLTERHKILHRLLQEGSPSD-NH2; not fully specified; printed as CH3CO-C(FL)QLLTERHKILHRLLQEGSPSD-NH2) [FL‐SRC1Box2, fluorescently labeled SRC1 box 2 peptide with the LXXLL motif, FP tracer, reference compound]
Kd (ERα/LBD (ERα302–552); FP, 20 nM labeled peptide, in the presence of 17β‐estradiol, 20 mM Tris-HCl pH 8.0, 25 mM NaCl, 30 min, 20 °C, quadratic binding equation (Fig S5A), read-out: K D value, binding to ERα/LBD): 7.8 µM
